Assay results taken from patent publication US8748603B2, “Crystalline forms of N-[2-[[(2,3-difluorophenyl)methyl]THIO]-6-{[(1R,2S)-2,3-dihydroxy-1-methylpropyl]oxy}-4-pyrimidinyl]-1-azetidinesulfonamide” (AstraZeneca AB, priority 2010, dated 2014).

Experiment: Competitive slurry trials between A-form and D-form (thermodynamic stability)
Assay type: physicochemical
Conditions: for Solid form stability in competitive slurry: slurries containing A-form and D-form in methanol, held at about 5° C. to about 50° C.; for Relative thermodynamic stability of crystalline forms: D-form versus A-form, conclusion from competitive slurries in methanol, about 5° C. to about 50° C.
Method: Competitive slurry trials were performed between the A-form (obtained by Example 1) and the D-form (obtained by Example 2).
Competitive slurries containing the A-form and D-form in methanol were held at any temperatures ranging from about 5° C. to about 50° C.
Complete conversion of the A-form to the D-form takes place, if the slurry is held at a particular temperature for a sufficient duration of time.

C[C@@H](Oc1cc(NS(=O)(=O)N2CCC2)nc(SCc2cccc(F)c2F)n1)[C@@H](O)CO [A-form, N-[2-[[(2,3-difluorophenyl)methyl]thio]-6-{[(1R,2S)-2,3-dihydroxy-1-methylpropyl]oxy}-4-pyrimidinyl]-1-azetidinesulfonamide]
Solid form stability in competitive slurry: transforms to the D-form

C[C@@H](Oc1cc(NS(=O)(=O)N2CCC2)nc(SCc2cccc(F)c2F)n1)[C@@H](O)CO [D-form, N-[2-[[(2,3-difluorophenyl)methyl]thio]-6-{[(1R,2S)-2,3-dihydroxy-1-methylpropyl]oxy}-4-pyrimidinyl]-1-azetidinesulfonamide]
Relative thermodynamic stability of crystalline forms: thermodynamically more stable form than the A-form
Relative thermodynamic stability of crystalline forms (listed as Form D): more thermodynamically stable than the A-form
Solid form stability in competitive slurry: remained stable
